Measurements taken from the NIST ThermoML archive (doi:10.1016/j.jct.2012.12.022).

Assay: mn = molality of the nth substance listed, in mol/kg
Details: 101 kPa, Liquid; for speed of sound: Sing-around technique in a fixed-path interferometer; for mass density: Vibrating tube method

O=C([O-])CC(O)(CC(=O)[O-])C(=O)[O-].[Na+].[Na+].[Na+] [trisodium citrate] + O
Details	mass density, 288.15 K [kg/m3]	mass density, 293.15 K [kg/m3]	mass density, 298.15 K [kg/m3]	mass density, 303.15 K [kg/m3]	speed of sound, 288.15 K [m/s]	speed of sound, 293.15 K [m/s]	speed of sound, 298.15 K [m/s]	speed of sound, 303.15 K [m/s]
m1 = 0.00247	999.597	998.701	997.537	996.131	1467.4	1483	1497.2	1509.6
m1 = 0.04871	1008.4	1007.39	1006.09	1004.6	1479.1	1493.7	1507.2	1519.6
m1 = 0.09738	1017.15	1016.08	1014.65	1013.09	1488.8	1503.5	1516.8	1529
m1 = 0.201	1034.85	1033.45	1031.8	1030.15	1509.2	1523.4	1536.7	1547.8
m1 = 0.2898	1049.56	1047.86	1046.01	1044.34	1526.1	1540	1552.4	1562.6
m1 = 0.3899	1065.78	1063.45	1061.6	1059.7	1545.2	1558.9	1570.2	1579
m1 = 0.4966	1082.16	1079.75	1077.6	1075.59	1565.2	1578	1587.1	1596.3
m1 = 0.6007	1097.37	1094.95	1092.45	1090.27	1583.7	1595	1603.5	1612.2
m1 = 0.7036	1111.65	1109.41	1106.71	1104.4	1601	1611.8	1617.6	1626.5
m1 = 0.7698	1120.84	1118.51	1115.58	1113.15	1612.3	1621.3	1628.1	1635.6
m1 = 0.9013	1138.29	1135.53	1132.31	1129.69	1636.1	1643.5	1646	1652.1
